Test: Stability (integrity) testing of amorphous and polymorphic form under storage conditions, RP-HPLC
Type: physicochemical
Parameters: Impurity RRT 1.104 / Impurity RRT 1.698: unit not given beside the values
Summary of the method: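 Amorphous form and three batches of polymorphic Form I of the hemi calcium salt were stored under different atmospheric conditions. Purity measured by RP-HPLC on C18 with UV detection, drug as percent of total absorption; total impurity from summed impurity peak areas, impurities identified by relative retention time.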

[1] = 25° C./60% RH 12M, hemi calcium salt
[2] = 30° C./65% RH 1M, hemi calcium salt
[3] = 30° C./65% RH 2M, hemi calcium salt
[4] = 30° C./65% RH 3M, hemi calcium salt
[5] = 30° C./65% RH 6M, hemi calcium salt
[6] = 30° C./65% RH 9M, hemi calcium salt
[7] = 30° C./65% RH 12M, hemi calcium salt
[8] = 40° C./75% RH 1M, hemi calcium salt
[9] = 40° C./75% RH 2M, hemi calcium salt
[10] = 40° C./75% RH 3M, hemi calcium salt
[11] = 40° C./75% RH 6M, hemi calcium salt
[12] = Initial, listed as Batch 2 of Polymorphic Form I, hemi calcium salt

CC(C)c1c(C(=O)Nc2ccc(CO)cc2)c(-c2ccccc2)c(-c2ccc(F)cc2)n1CC[C@@H](O)C[C@@H](O)CC(=O)[O-].CC(C)c1c(C(=O)Nc2ccc(CO)cc2)c(-c2ccccc2)c(-c2ccc(F)cc2)n1CC[C@@H](O)C[C@@H](O)CC(=O)[O-].[Ca+2] [PP00105, (3R, 5R)-7-[2-(4-fluorophenyl)-5-isopropyl-3-phenyl-4-[(4-hydroxymethylphenylamino)carbonyl]-pyrrol-1-yl]-3,5-dihydroxy-heptanoic acid, hemi calcium salt]
Impurity RRT 1.439 (25° C./60% RH 12M): 0.152
Impurity RRT 1.596 (25° C./60% RH 12M): 0.046
Impurity RRT 1.698 (25° C./60% RH 12M): 0.053
Assay [1]: 98.25 % W/W
Highest Impurity [1]: 0.407
Impurity RRT 0.935 [1]: 0.365
Impurity RRT 1.045 [1]: 0.407
Impurity RRT 1.640 [1]: 0.052
Total Impurity [1]: 1.522
Water [1]: 5.02 % W/W
Description (30° C./65% RH 1M): White
Impurity RRT 1.096 (30° C./65% RH 1M): 0.24
Impurity RRT 1.439 (30° C./65% RH 1M): 0.151
Impurity RRT 1.596 (30° C./65% RH 1M): 0.076
Impurity RRT 1.698 (30° C./65% RH 1M): 0.065
Water (30° C./65% RH 1M): 4.16 % W/W
Assay [2]: 98.23 % W/W
Highest Impurity [2]: 0.444
Impurity RRT 0.935 [2]: 0.396
Impurity RRT 1.045 [2]: 0.444
Impurity RRT 1.64 [2]: 0.06
Total Impurity [2]: 1.44
Description (30° C./65% RH 2M): White
Impurity RRT 1.096 (30° C./65% RH 2M): 0.242
Impurity RRT 1.183 (30° C./65% RH 2M): 0.063
Impurity RRT 1.439 (30° C./65% RH 2M): 0.165
Impurity RRT 1.596 (30° C./65% RH 2M): 0.074
Impurity RRT 1.698 (30° C./65% RH 2M): 0.069
Assay [3]: 98.20 % W/W
Highest Impurity [3]: 0.449
Impurity RRT 0.935 [3]: 0.411
Impurity RRT 1.045 [3]: 0.449
Impurity RRT 1.64 [3]: 0.063
Total Impurity [3]: 1.54
Water [3]: 4.16 % W/W
Description (30° C./65% RH 3M): White
Impurity RRT 1.096 (30° C./65% RH 3M): 0.229
Impurity RRT 1.439 (30° C./65% RH 3M): 0.158
Impurity RRT 1.596 (30° C./65% RH 3M): 0.074
Impurity RRT 1.698 (30° C./65% RH 3M): 0.062
Assay [4]: 98.14 % W/W
Highest Impurity [4]: 0.437
Impurity RRT 0.935 [4]: 0.399
Impurity RRT 1.045 [4]: 0.437
Impurity RRT 1.64 [4]: 0.058
Total Impurity [4]: 1.42
Water [4]: 5.02 % W/W
Description (30° C./65% RH 6M): White
Impurity RRT 1.096 (30° C./65% RH 6M): 0.218
Impurity RRT 1.439 (30° C./65% RH 6M): 0.156
Impurity RRT 1.596 (30° C./65% RH 6M): 0.070
Impurity RRT 1.698 (30° C./65% RH 6M): 0.063
Assay [5]: 98.09 % W/W
Highest Impurity [5]: 0.460
Impurity RRT 0.935 [5]: 0.409
Impurity RRT 1.045 [5]: 0.460
Impurity RRT 1.640 [5]: 0.054
Total Impurity [5]: 1.430
Water [5]: 4.96 % W/W
Description (30° C./65% RH 9M): White
Impurity RRT 1.096 (30° C./65% RH 9M): 0.232
Impurity RRT 1.183 (30° C./65% RH 9M): 0.036
Impurity RRT 1.439 (30° C./65% RH 9M): 0.182
Impurity RRT 1.596 (30° C./65% RH 9M): 0.053
Impurity RRT 1.698 (30° C./65% RH 9M): 0.048
Assay [6]: 98.07 % W/W
Highest Impurity [6]: 0.442
Impurity RRT 0.935 [6]: 0.404
Impurity RRT 1.045 [6]: 0.442
Impurity RRT 1.640 [6]: 0.058
Total Impurity [6]: 1.455
Water [6]: 5.10 % W/W
Description (30° C./65% RH 12M): White
Impurity RRT 0.138 (30° C./65% RH 12M): 0.200
Impurity RRT 1.096 (30° C./65% RH 12M): 0.192
Impurity RRT 1.183 (30° C./65% RH 12M): 0.048
Impurity RRT 1.439 (30° C./65% RH 12M): 0.163
Impurity RRT 1.596 (30° C./65% RH 12M): 0.065
Impurity RRT 1.698 (30° C./65% RH 12M): 0.045
Assay [7]: 98.35 % W/W
Highest Impurity [7]: 0.399
Impurity RRT 0.935 [7]: 0.399
Impurity RRT 1.045 [7]: 0.360
Impurity RRT 1.640 [7]: 0.048
Total Impurity [7]: 1.520
Water [7]: 4.87 % W/W
Description (40° C./75% RH 1M): White
Impurity RRT 1.096 (40° C./75% RH 1M): 0.244
Impurity RRT 1.439 (40° C./75% RH 1M): 0.153
Impurity RRT 1.596 (40° C./75% RH 1M): 0.080
Impurity RRT 1.698 (40° C./75% RH 1M): 0.062
Assay [8]: 98.15 % W/W
Highest Impurity [8]: 0.444
Impurity RRT 0.935 [8]: 0.404
Impurity RRT 1.045 [8]: 0.444
Impurity RRT 1.64 [8]: 0.061
Total Impurity [8]: 1.45
Water [8]: 4.71 % W/W
Description (40° C./75% RH 2M): White
Impurity RRT 1.096 (40° C./75% RH 2M): 0.234
Impurity RRT 1.183 (40° C./75% RH 2M): 0.072
Impurity RRT 1.439 (40° C./75% RH 2M): 0.175
Impurity RRT 1.596 (40° C./75% RH 2M): 0.079
Impurity RRT 1.698 (40° C./75% RH 2M): 0.065
Assay [9]: 98.19 % W/W
Highest Impurity [9]: 0.457
Impurity RRT 0.935 [9]: 0.416
Impurity RRT 1.045 [9]: 0.457
Impurity RRT 1.64 [9]: 0.066
Total Impurity [9]: 1.56
Water [9]: 4.35 % W/W
Description (40° C./75% RH 3M): White
Impurity RRT 1.096 (40° C./75% RH 3M): 0.229
Impurity RRT 1.439 (40° C./75% RH 3M): 0.165
Impurity RRT 1.596 (40° C./75% RH 3M): 0.078
Impurity RRT 1.698 (40° C./75% RH 3M): 0.06
Assay [10]: 98.09 % W/W
Highest Impurity [10]: 0.442
Impurity RRT 0.935 [10]: 0.413
Impurity RRT 1.045 [10]: 0.442
Impurity RRT 1.64 [10]: 0.056
Total Impurity [10]: 1.44
Water [10]: 4.45 % W/W
Description (40° C./75% RH 6M): White
Impurity RRT 0.138 (40° C./75% RH 6M): 0.270
Impurity RRT 1.096 (40° C./75% RH 6M): 0.217
Impurity RRT 1.439 (40° C./75% RH 6M): 0.146
Impurity RRT 1.596 (40° C./75% RH 6M): 0.073
Impurity RRT 1.698 (40° C./75% RH 6M): 0.052
Assay [11]: 98.14 % W/W
Highest Impurity [11]: 0.410
Impurity RRT 0.935 [11]: 0.377
Impurity RRT 1.045 [11]: 0.410
Impurity RRT 1.640 [11]: 0.045
Total Impurity [11]: 1.590
Water [11]: 5.45 % W/W
Description (Initial): White
Impurity RRT 1.096 (Initial): 0.229
Impurity RRT 1.439 (Initial): 0.168
Impurity RRT 1.596 (Initial): 0.075
Impurity RRT 1.698 (Initial): 0.062
Assay [12]: 98.45 % W/W
Highest Impurity [12]: 0.457
Impurity RRT 0.935 [12]: 0.413
Impurity RRT 1.045 [12]: 0.457
Impurity RRT 1.64 [12]: 0.057
Total Impurity [12]: 1.46
Water [12]: 4.92 % W/W
